Measurements published in paper PMC10648852, “Molecular drivers of resistance to sulbactam-durlobactam in contemporary clinical isolates of Acinetobacter baumannii” (Antimicrobial Agents and Chemotherapy, 2023).
Read-outs that look alike come from different tables or passages of the source.

What was measured:
[1] = system: A. baumannii wild-type PBP3; test: Acylation rate constant (kinact/Ki), fluorescence anisotropy competition with BOCILLIN; settings: Wildtype PBP3
A. baumannii PBP3 S395F = test: as above; settings: variant data from McLeod et al. (2018)
[2] = system: A. baumannii clinical isolates; test: microbe, parasite or virus in culture; assay type: cell-based; settings: Acinetobacter baumannii
Procedure, shortened: (§1)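 Broth microdilution MICs following CLSI methods, interpreted with CLSI breakpoints where available. Sulbactam tested as twofold dilutions combined with fixed 4 µg/mL durlobactam.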

[3] = system: A. pittii clinical isolates; test: microbe, parasite or virus in culture; assay type: cell-based; settings: Acinetobacter pittii
Procedure, shortened: as §1

[4] = system: A. nosocomialis clinical isolate; test: microbe, parasite or virus in culture; assay type: cell-based; settings: Acinetobacter nosocomialis, isolate ARC7023 (IHMA 2118812), France, BSI, 2019, read-out: MIC
Procedure, shortened: as §1

A. baumannii PBP3 Q488K = test: Acylation rate constant (kinact/Ki), fluorescence anisotropy competition with BOCILLIN
A. baumannii PBP3 S390T = system: A. baumannii PBP3 S390T; set-up: method as in McLeod et al. (2018); settings: average ± SD, ref McLeod et al. (2018); cited from earlier work
[5] = system: ABC clinical isolates with SUL-DUR MIC > 4 µg/mL; test: microbe, parasite or virus in culture; assay type: cell-based, Acinetobacter baumannii-calcoaceticus complex
Procedure, shortened: as §1

A. baumannii PBP3 N377Y = test: Acylation rate constant (kinact/Ki), fluorescence anisotropy competition with BOCILLIN
A. baumannii PBP3 N392T = test: as above
A. baumannii PBP3 H370Y = test: as above

C[C@@H](O)[C@H]1C(=O)N2C(C(=O)O)=C(S[C@@H]3CN[C@H](C(=O)N(C)C)C3)[C@H](C)[C@H]12 [meropenem]
64 µg/mL: MIC ([2]; isolate ARC6644 (IHMA 1420327), Mexico, UTI, 2016, read-out: MIC) | MIC ([2]; isolate ARC6646 (IHMA 1484127), United States, RTI, 2016, read-out: MIC) | MIC ([2]; isolate ARC6650 (IHMA 1457337), Argentina, RTI, 2016, read-out: MIC) | MIC ([2]; isolate ARC6799 (IHMA 1562935), Spain, UTI, 2017, read-out: MIC) | MIC ([2]; isolate ARC6800 (IHMA 1557526), Turkey, RTI, 2017, read-out: MIC) | MIC ([2]; isolate ARC6802 (IHMA 1557073), Spain, UTI, 2017, read-out: MIC) | MIC ([2]; isolate ARC6805 (IHMA 1558650), United States, RTI, 2017, read-out: MIC) | MIC ([2]; isolate ARC6808 (IHMA 1557168), Spain, RTI, 2017, read-out: MIC) | MIC ([2]; isolate ARC6820 (IHMA 1647876), Argentina, RTI, 2017, read-out: MIC) | MIC ([2]; isolate ARC6937 (IHMA 1562926), Spain, UTI, 2017, read-out: MIC) | MIC ([2]; isolate ARC6955 (IHMA 1825425), United States, RTI, 2018, read-out: MIC) | MIC ([2]; isolate ARC7025 (IHMA 2002121), Spain, RTI, 2019, read-out: MIC) | MIC ([2]; isolate ARC7083 (IHMA 2163687), United States, RTI, 2020, read-out: MIC) | MIC ([2]; isolate ARC7089 (IHMA 2240345), Argentina, BSI, 2020, read-out: MIC) | MIC ([2]; isolate ARC7094 (IHMA 2296423), Turkey, RTI, 2020, read-out: MIC) | MIC ([2]; isolate ARC7161 (IHMA 2429252), Ukraine, RTI, 2021, read-out: MIC)
100%: % WT [1] | %NS (% non-susceptibility) ([5]; 64 non-clonal ABC isolates, 2023 CLSI breakpoints plus FDA breakpoint of 4 µg/mL for SUL-DUR)
164%: % WT (A. baumannii PBP3 N392T)
5,000 ± 1,000 ([10]) M^-1s^-1: k inact/K i ([1]; average ± SD)
30%: % WT (A. baumannii PBP3 S395F)
3,700 ± 300 ([2]) M^-1s^-1: k inact/K i (A. baumannii PBP3 N377Y; average ± SD)
74%: % WT (A. baumannii PBP3 N377Y)
120%: % WT (A. baumannii PBP3 H370Y)
32 µg/mL: MIC ([2]; isolate ARC7086 (IHMA 2207563), Israel, RTI, 2020, read-out: MIC) | MIC ([2]; isolate ARC7095 (IHMA 2320843), Turkey, BSI, 2020, read-out: MIC) | MIC ([5]; Acinetobacter, read-out: MIC Min)
16,000 ± 6,000 ([3]) M^-1s^-1: k inact/K i (A. baumannii PBP3 S390T)
78%: % WT (A. baumannii PBP3 Q488K)
8,200 ± 200 ([2]) M^-1s^-1: k inact/K i (A. baumannii PBP3 N392T; average ± SD)
> 64 µg/mL: MIC ([2]; isolate ARC6645 (IHMA 1435703), France, UTI, 2016, read-out: MIC) | MIC ([2]; isolate ARC6647 (IHMA 1386786), Argentina, RTI, 2016, read-out: MIC) | MIC ([2]; isolate ARC6648 (IHMA 1407634), Spain, RTI, 2016, read-out: MIC) | MIC ([2]; isolate ARC6652 (IHMA 1465642), Belgium, RTI, 2016, read-out: MIC) | MIC ([2]; isolate ARC6653 (IHMA 1308777), Vietnam, RTI, 2016, read-out: MIC) | MIC ([2]; isolate ARC6801 (IHMA 1662094), Thailand, RTI, 2017, read-out: MIC) | MIC ([2]; isolate ARC6803 (IHMA 1589408), Belgium, UTI, 2017, read-out: MIC) | MIC ([2]; isolate ARC6809 (IHMA 1699528), Guatemala, RTI, 2017, read-out: MIC) | MIC ([2]; isolate ARC6810 (IHMA 1699548), Guatemala, RTI, 2017, read-out: MIC) | MIC ([2]; isolate ARC6812 (IHMA 1699530), Guatemala, RTI, 2017, read-out: MIC) | MIC ([2]; isolate ARC6813 (IHMA 1699543), Guatemala, UTI, 2017, read-out: MIC) | MIC ([2]; isolate ARC6814 (IHMA 1699512), Guatemala, RTI, 2017, read-out: MIC) | MIC ([2]; isolate ARC6815 (IHMA 1699513), Guatemala, RTI, 2017, read-out: MIC) | MIC ([2]; isolate ARC6816 (IHMA 1699521), Guatemala, RTI, 2017, read-out: MIC) | MIC ([2]; isolate ARC6817 (IHMA 1699523), Guatemala, RTI, 2017, read-out: MIC) | MIC ([2]; isolate ARC6818 (IHMA 1683261), Thailand, RTI, 2017, read-out: MIC) | MIC ([2]; isolate ARC6819 (IHMA 1683267), Thailand, RTI, 2017, read-out: MIC) | MIC ([2]; isolate ARC6821 (IHMA 1699517), Guatemala, RTI, 2017, read-out: MIC) | MIC ([2]; isolate ARC6822 (IHMA 1637626), Guatemala, RTI, 2017, read-out: MIC) | MIC ([2]; isolate ARC6823 (IHMA 1620872), Greece, SSSI, 2017, read-out: MIC) | MIC ([2]; isolate ARC6824 (IHMA 1625487), Argentina, BSI, 2017, read-out: MIC) | MIC ([2]; isolate ARC6950 (IHMA 1820064), Israel, RTI, 2018, read-out: MIC) | MIC ([2]; isolate ARC6953 (IHMA 1909827), Turkey, IAI, 2018, read-out: MIC) | MIC ([2]; isolate ARC6954 (IHMA 1838192), Guatemala, SSSI, 2018, read-out: MIC) | MIC ([2]; isolate ARC7008 (IHMA 2009813), Thailand, BSI, 2019, read-out: MIC) | MIC ([2]; isolate ARC7009 (IHMA 2043611), United States, UTI, 2019, read-out: MIC) | MIC ([2]; isolate ARC7010 (IHMA 2043398), United States, RTI, 2019, read-out: MIC) | MIC ([2]; isolate ARC7011 (IHMA 2104553), Germany, RTI, 2019, read-out: MIC) | MIC ([2]; isolate ARC7012 (IHMA 2010001), Thailand, RTI, 2019, read-out: MIC) | MIC ([2]; isolate ARC7013 (IHMA 1962831), Argentina, RTI, 2019, read-out: MIC) | MIC ([2]; isolate ARC7014 (IHMA 2045328), Guatemala, IAI, 2019, read-out: MIC) | MIC ([2]; isolate ARC7015 (IHMA 2045327), Guatemala, UTI, 2019, read-out: MIC) | MIC ([2]; isolate ARC7016 (IHMA 2148441), Brazil, BSI, 2019, read-out: MIC) | MIC ([2]; isolate ARC7017 (IHMA 2148446), Brazil, BSI, 2019, read-out: MIC) | MIC ([2]; isolate ARC7018 (IHMA 2045454), Guatemala, IAI, 2019, read-out: MIC) | MIC ([2]; isolate ARC7019 (IHMA 2114463), Thailand, RTI, 2019, read-out: MIC) | MIC ([2]; isolate ARC7020 (IHMA 2045326), Guatemala, RTI, 2019, read-out: MIC) | MIC ([2]; isolate ARC7021 (IHMA 1966347), Guatemala, RTI, 2019, read-out: MIC) | MIC ([2]; isolate ARC7022 (IHMA 2045319), Guatemala, IAI, 2019, read-out: MIC) | MIC ([2]; isolate ARC7024 (IHMA 2059448), Turkey, RTI, 2019, read-out: MIC) | MIC ([2]; isolate ARC7026 (IHMA 2104494), Guatemala, BSI, 2019, read-out: MIC) | MIC ([2]; isolate ARC7082 (IHMA 2160640), Belgium, BSI, 2020, read-out: MIC) | MIC ([2]; isolate ARC7084 (IHMA 2189596), Germany, RTI, 2020, read-out: MIC) | MIC ([2]; isolate ARC7085 (IHMA 2205747), Guatemala, IAI, 2020, read-out: MIC) | MIC ([2]; isolate ARC7088 (IHMA 2215554), Turkey, BSI, 2020, read-out: MIC) | MIC ([2]; isolate ARC7090 (IHMA 2244410), Poland, RTI, 2020, read-out: MIC) | MIC ([2]; isolate ARC7091 (IHMA 2244564), Australia, RTI, 2020, read-out: MIC) | MIC ([2]; isolate ARC7092 (IHMA 2258772), United States, BSI, 2020, read-out: MIC) | MIC ([2]; isolate ARC7093 (IHMA 2258783), United States, RTI, 2020, read-out: MIC) | MIC ([2]; isolate ARC7156 (IHMA 2455450), Greece, RTI, 2021, read-out: MIC) | MIC ([2]; isolate ARC7158 (IHMA 2523738), Italy, BSI, 2021, read-out: MIC) | MIC ([2]; isolate ARC7159 (IHMA 2456229), Malaysia, RTI, 2021, read-out: MIC) | MIC ([2]; isolate ARC7160 (IHMA 2458626), Thailand, RTI, 2021, read-out: MIC) | MIC ([2]; isolate ARC7162 (IHMA 2411847), United States, BSI, 2021, read-out: MIC) | MIC ([2]; isolate ARC7163 (IHMA 2477704), United States, BSI, 2021, read-out: MIC) | MIC ([3]; isolate ARC6949 (IHMA 1898982), Romania, RTI, 2018, read-out: MIC) | MIC ([3]; isolate ARC6951 (IHMA 1776233), Philippines, RTI, 2018, read-out: MIC) | MIC ([3]; isolate ARC6952 (IHMA 1899008), Romania, RTI, 2018, read-out: MIC) | MIC ([3]; isolate ARC7087 (IHMA 2212062), Colombia, BSI, 2020, read-out: MIC) | MIC [4] | MIC50 ([5]; Acinetobacter) | MIC90 ([5]; Acinetobacter) | MIC ([5]; Acinetobacter, read-out: MIC Max)
3,900 ± 200 ([2]) M^-1s^-1: k inact/K i (A. baumannii PBP3 Q488K; average ± SD)
6,000 ± 10 ([2]) M^-1s^-1: k inact/K i (A. baumannii PBP3 H370Y; average ± SD)
